In general, EC50 refers to the concentration that produces a half-maximal response.

The record followed here is patent publication US12492200B2, “NLRP3 modulators” (INNATE TUMOR IMMUNITY, INC., priority 2020, dated 2025).

The target in the assay is T1, NLRP3 (Homo sapiens, UniProt Q96P20).
T1 construct: host or cells: PMA-differentiated THP-1 cells
The experiment in a line: Measurement of IL-1β production (NLRP3 hIL1β EC50), PMA-differentiated THP-1 cells. Particulars: human IL-1β production; assayed using one or more of the described procedures. The class given is cell-based. On the procedure:
THP-1 cells were purchased from the American Type Culture Collection and sub-cultured according to instructions from the supplier. Prior to experiments, cells were cultured in RPMI 1640 containing 10% heat inactivated FBS, penicillin (100 units/ml) and streptomycin (100 μg/ml), and maintained in log phase prior to experimental setup. Prior to the experiment THIP-1 were treated with PMA (Phorbol 12-myristate 13-acetate) (10 μg/ml) for 24 hours. The day of the experiment the media was removed and attaching cells were treated with trypsin for 2 minutes, cells were then collected, washed with PBS (phosphate buffer saline), spin down, resuspended in 2% heat inactivated FBS with RPMI at a concentration of 1×10^6 cells/ml, and 100 μl was plated in a 96 well plate. Compounds were dissolved in dimethyl sulfoxide (DMSO) and added to the culture medium to achieve desired concentration (e.g. 100, 30, 10, 3, 1, 0.3 or 0.1 μM). Cells were incubated with compounds for 4 hours. Cell free supernatant was collected and the production of IL-1β was evaluated by ELISA. A vehicle only control was run concurrently with each experiment. Final DMSO concentration was 1%.
THP-1 cells were purchased from the American Type Culture Collection and sub-cultured according to instructions from the supplier. Prior to experiments, cells were cultured in RPMI 1640 containing 10% heat inactivated FBS, penicillin (100 units/ml), streptomycin (100 μg/ml), HEPES (10 mM) and sodium pyruvate (1 mM) and maintained in log phase prior to experimental setup. Prior to the experiment, THP-1 cells were treated with PMA (Phorbol 12-myristate 13-acetate) (20 μg/ml) overnight. The day of the experiment, the media was removed and attached cells were treated with trypsin for 2 minutes, cells were then collected, washed with PBS (phosphate buffer saline), pelleted by centrifugation and resuspended in 2% heat inactivated FBS with RPMI at a concentration of 50,000 cells/well in a 384 well plate. Cell free supernatant was collected and the production of IL-1β was evaluated by ELISA. Compounds were dissolved in dimethyl sulfoxide (DMSO) and added to the culture medium to achieve desired concentration (e.g. 100, 30, 10, 3, 1, 0.3 or 0.1 μM). Cells were incubated with compounds for 2 hours. A vehicle only control was run concurrently with each experiment. Final DMSO concentration was 1%.
Serial dilutions of compounds in DMSO were added to low volume 384 well plates at 100 nl/well using an ECHO 550 acoustic dispenser (Labcyte) to achieve final starting concentration of 10 μM in assay.
THP-1 cells in RPMI (Gibco, 11875) media with 10% FBS at a density of 1×10^6 cell/ml in a T175 flask were treated with a final concentration of phorbol 12-myristate 13-acetate (PMA) (Sigma,P1585) of 50 ng/ml overnight at 37° C. at 5% CO2 for differentiation. Cells were harvested the next day after rinsing well with dPBS using 0.5% trypsin. A cell solution was prepared of 1×10^6 cells/ml for 50,000 cells in 50 μl/well in RPMI media with 2% FBS. Cells were plated using a multichannel pipette onto the compound dilutions in Greiner, 384 well, black clear bottom tissue culture treated plates (781090). The plates were incubated in 37° C. incubator at 5% CO2 for 2 hours.
After the 2 hour incubation, the cell plates were spun in the centrifuge for 5 minutes at 1200 rpm. Using the Felix (CyBio), 8 μl of the supernatant was transferred to 384 well, low volume, white proxy plates. (Perkin Elmer, 6008230). A human IL1beta hTRF kit was used to analyze the supernatant (CISBIO, 62HIL1BPEG). The kit instructions were followed for preparing the IL1Beta standard curve and then the antibodies from the kit were diluted 1:40 rather than 1:20 as kit instructed. Once combined, the antibodies were added across the plates, 5 μl/well. The plates were sealed and incubated at 4° C. overnight. The plates were then read on the Perkin Elmer EnVision at 665/615 nm using the hTRF laser.

T1 sequence (Q96P20 whole entry): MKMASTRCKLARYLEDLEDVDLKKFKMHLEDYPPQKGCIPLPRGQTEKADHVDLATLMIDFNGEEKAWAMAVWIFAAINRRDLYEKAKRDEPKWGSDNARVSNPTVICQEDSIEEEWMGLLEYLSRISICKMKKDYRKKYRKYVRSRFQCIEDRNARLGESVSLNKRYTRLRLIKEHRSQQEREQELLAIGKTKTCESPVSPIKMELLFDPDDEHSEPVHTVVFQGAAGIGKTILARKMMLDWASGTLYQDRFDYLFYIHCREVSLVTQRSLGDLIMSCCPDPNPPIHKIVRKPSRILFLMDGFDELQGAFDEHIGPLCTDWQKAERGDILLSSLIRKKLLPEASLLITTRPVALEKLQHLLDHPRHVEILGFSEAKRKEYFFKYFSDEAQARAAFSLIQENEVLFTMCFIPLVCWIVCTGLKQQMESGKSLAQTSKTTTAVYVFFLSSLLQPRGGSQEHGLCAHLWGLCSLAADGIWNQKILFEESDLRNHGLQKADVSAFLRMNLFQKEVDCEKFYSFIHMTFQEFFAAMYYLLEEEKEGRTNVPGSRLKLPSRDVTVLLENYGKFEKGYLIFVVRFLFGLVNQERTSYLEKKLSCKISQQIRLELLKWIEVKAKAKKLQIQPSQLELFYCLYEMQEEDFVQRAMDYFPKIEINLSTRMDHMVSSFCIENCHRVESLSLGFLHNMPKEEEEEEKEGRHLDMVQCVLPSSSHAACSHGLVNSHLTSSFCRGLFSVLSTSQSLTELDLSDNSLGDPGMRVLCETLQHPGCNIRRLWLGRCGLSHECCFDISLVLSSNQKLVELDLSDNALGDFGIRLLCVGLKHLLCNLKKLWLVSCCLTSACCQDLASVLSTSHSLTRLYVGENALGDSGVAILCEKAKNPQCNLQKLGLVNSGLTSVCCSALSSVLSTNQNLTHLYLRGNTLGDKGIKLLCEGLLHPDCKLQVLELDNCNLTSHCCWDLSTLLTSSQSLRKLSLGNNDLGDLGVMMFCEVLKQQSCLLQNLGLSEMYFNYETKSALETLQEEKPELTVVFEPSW

Take `CCn1c([C@H]2CCCN(C(C)=O)C2)nc2c(N)nc3cc(-c4cc[nH]n4)ccc3c21` [Example 41]: the response was half-maximal at 770 nM (EC50). This lies in the sub-micromolar range.

On to `CC(=O)N1CC[C@H](c2nc3c(N)nc4cc(-c5cc[nH]n5)ccc4c3[nH]2)C1` [Example 71], for which the EC50 turned out to be 4900 nM. Compared with the last molecule, the EC50 is about 6.4-fold higher.

With `C#CCC(=O)N1CCC[C@H](c2nc3c(N)nc4cc(-c5cc[nH]n5)ccc4c3n2CC)C1` [Example 49], the EC50 amounted to 620 nM.

`N#CC1(C(=O)N2CCC[C@H]2Cc2nc3c(N)nc4cc(-c5cc[nH]n5)ccc4c3[nH]2)CCC1` [Example 94] displayed an EC50 of 6200 nM.

In turn, `CCC(=O)N1CCC[C@H](c2nc3c(N)nc4cc(-c5cc[nH]n5)ccc4c3n2C(C)C)C1` [Example 5, (S)-1-(3-(4-Amino-1-isopropyl-7-(1H-pyrazol-3-yl)-1H-imidazo[4,5-c]quinolin-2-yl)piperidin-1-yl)propan-1-one] came in with a half-maximal effective concentration (EC50) of 330 nM.

In turn, `CCn1c([C@H]2CCCN(C(=O)C3CC3(F)F)C2)nc2c(N)nc3cc(-c4cc[nH]n4)ccc3c21` (some centres unmarked) [Example 48] yielded an EC50 of 80 nM.

Consider `N#CC1(C(=O)N2CCC[C@@H]2Cc2nc3c(N)nc4cc(-c5cc[nH]n5)ccc4c3[nH]2)CCC1` [Example 82], for which the midpoint of the response, the EC50, lay at 2600 nM.

Molecule `CCN1CCC(Cc2nc3c(N)nc4cc(-c5cc[nH]n5)ccc4c3[nH]2)C1` (centres unmarked) [Example 21, 2-((1-Ethylpyrrolidin-3-yl)methyl)-7-(1H-pyrazol-3-yl)-1H-imidazo[4,5-c]quinolin-4-amine] registered a concentration for a half-maximal effect (EC50) of 880 nM.

`CC(C)C(=O)N1CC[C@H](c2nc3c(N)nc4cc(-c5cc[nH]n5)ccc4c3[nH]2)C1` [Example 72]: the EC50 amounted to 3100 nM.

Take `CC(C)C(=O)N1CCC[C@@H]1Cc1nc2c(N)nc3cc(-c4cc[nH]n4)ccc3c2[nH]1` [Example 79]: the EC50 was 1600 nM.

As to “(S)-1-(2-((4-amino-7-(1H-pyrazol-3-yl)-1H-imidazo[4,5-c]quinolin-2-yl)methyl)pyrrolidin-1-yl)propane-1-one [Example 18]”, the response was half-maximal at 4900 nM (EC50).

`CCn1c([C@H]2CCCN(C(=O)C3CCC3)C2)nc2c(N)nc3cc(-c4cc[nH]n4)ccc3c21` [Example 44]: the concentration for a half-maximal effect (EC50) is 220 nM. Compared with the last molecule, the EC50 is about 22-fold lower.

In turn, `Nc1nc2cc(-c3cc[nH]n3)ccc2c2[nH]c([C@@H]3CCCN(C(=O)c4ccccc4)C3)nc12` [Example 67] displayed an EC50 of 1800 nM. This EC50 lies about 8.2-fold higher than the previous one.

For the molecule `Nc1nc2cc(-c3cc[nH]n3)ccc2c2[nH]c([C@H]3CCCN(C(=O)C4CC(F)(F)C4)C3)nc12` [Example 32], the EC50 came out at 2500 nM.

As to `CCCC(=O)N1CCC[C@@H]1Cc1nc2c(N)nc3cc(-c4cc[nH]n4)ccc3c2[nH]1` [Example 78], the response was half-maximal at 5800 nM (EC50).

On to `N#CC1(C(=O)N2CCC[C@@H](c3nc4c(N)nc5cc(-c6cc[nH]n6)ccc5c4[nH]3)C2)CCC1` [Example 69], for which the EC50 was found to be 2000 nM.

As to `Nc1nc2cc(-c3cc[nH]n3)ccc2c2[nH]c(C[C@@H]3CCCN3C(=O)C3CCC3)nc12` [Example 89], the EC50 stood at 2800 nM.

`Nc1nc2cc(-c3cc[nH]n3)ccc2c2[nH]c(C[C@H]3CCCN3)nc12` [Example 14, (R)-7-(1H-pyrazol-3-yl)-2-(pyrrolidin-2-ylmethyl)-1H-imidazo[4,5-c]quinolin-4-amine] yielded an EC50 of 110 nM.

`CCC(=O)N1CC[C@H](c2nc3c(N)nc4cc(-c5cc[nH]n5)ccc4c3[nH]2)C1` [Example 9, (S)-1-(3-(4-Amino-7-(1H-pyrazol-3-yl)-1H-imidazo[4,5-c]quinolin-2-yl)pyrrolidin-1-yl)propan-1-one] had an EC50 of 6600 nM.

On to `CCn1c([C@H]2CCCN(C(=O)c3ccccc3)C2)nc2c(N)nc3cc(-c4cc[nH]n4)ccc3c21` [Example 46], for which the EC50 is 180 nM. Against the preceding molecule, the EC50 is about 37-fold lower.

`Nc1nc2cc(-c3cc[nH]n3)ccc2c2[nH]c(C[C@@H]3CCCN3C(=O)C3CC3(F)F)nc12` (some centres unmarked) [Example 91]: a half-maximal effect (EC50) was put at 4100 nM.

`CCn1c([C@H]2CCCN(C(=O)CCOC)C2)nc2c(N)nc3cc(-c4cc[nH]n4)ccc3c21` [Example 47]: the EC50 was determined as 640 nM.

Consider `COCCC(=O)N1CCC[C@H](c2nc3c(N)nc4cc(-c5cc[nH]n5)ccc4c3n2C(C)C)C1` [Example 59], for which the midpoint of the response, the EC50, lay at 970 nM. This EC50 lies about 1.5-fold higher than the previous one.

`CC(C)CC(=O)N1CCC[C@@H](c2nc3c(N)nc4cc(-c5cc[nH]n5)ccc4c3[nH]2)C1` [Example 66] gave an EC50 of 3500 nM.

As to `Nc1nc2cc(-c3cc[nH]n3)ccc2c2[nH]c([C@H]3CCCN(C(=O)C4CCC4)C3)nc12` [Example 30], the EC50 was 680 nM.

The molecule `Nc1nc2cc(-c3cc[nH]n3)ccc2c2[nH]c([C@H]3CCCN(C(=O)C4(C(F)(F)F)CC4)C3)nc12` [Example 36] showed an EC50 of 2800 nM. This EC50 is about 4.1-fold higher than that of the molecule before.

In turn, `CC(=O)N1CCC[C@H](c2nc3c(N)nc4cc(-c5cc[nH]n5)ccc4c3[nH]2)C1` [Example 24] returned an EC50 of 770 nM.

Molecule `CCCC(=O)N1CCC[C@H](c2nc3c(N)nc4cc(-c5cc[nH]n5)ccc4c3[nH]2)C1` [Example 27] returned a concentration giving a half-maximal response (EC50) of 890 nM. This EC50 and that of the molecule before are within 1.5-fold of each other.

As to `COC(=O)N1CCC(Cc2nc3c(N)nc4cc(-c5cc[nH]n5)ccc4c3[nH]2)C1` (centres unmarked) [Example 19, Methyl 3-((4-amino-7-(1H-pyrazol-3-yl)-1H-imidazo[4,5-c]quinolin-2-yl)methyl)pyrrolidine-1-carboxylate], the EC50 came to 1600 nM.

With `Nc1nc2cc(-c3cc[nH]n3)ccc2c2[nH]c([C@H]3CCCNC3)nc12` [Example 2, (S)-2-(Piperidin-3-yl)-7-(1H-pyrazol-3-yl)-1H-imidazo[4,5-c]quinolin-4-amine], the EC50 came out at 510 nM. This EC50 lies about 3.1-fold lower than the previous one.

Regarding `Nc1nc2cc(-c3cc[nH]n3)ccc2c2[nH]c([C@@H]3CCCN(C(=O)C4(C(F)(F)F)CC4)C3)nc12` [Example 68], the EC50 was 2300 nM.

`CC(=O)N1CCC(Cc2nc3c(N)nc4cc(-c5cc[nH]n5)ccc4c3[nH]2)C1` (centres unmarked) [Example 20, 1-(3-((4-Amino-7-(1H-pyrazol-3-yl)-1H-imidazo[4,5-c]quinolin-2-yl)methyl)pyrrolidin-1-yl)ethan-1-one] showed an EC50 of 4900 nM. This EC50 is about 2.1-fold higher than that of the molecule before.

The molecule `Nc1nc2cc(-c3cc[nH]n3)ccc2c2[nH]c([C@H]3CCN(C(=O)CC(F)(F)F)C3)nc12` [Example 74] yielded an EC50 of 6800 nM.

As for `CCCC(=O)N1CCC[C@H](c2nc3c(N)nc4cc(-c5cc[nH]n5)ccc4c3n2C(C)C)C1` [Example 52], the EC50 amounted to 380 nM.

The molecule `COCC(=O)N1CCC[C@@H]1Cc1nc2c(N)nc3cc(-c4cc[nH]n4)ccc3c2[nH]1` [Example 80] displayed an EC50 of 6600 nM.

The molecule `CCC(=O)N1CCC[C@@H]1Cc1nc2c(N)nc3cc(-c4cc[nH]n4)ccc3c2[nH]1` [Example 15, (R)-1-(2-((4-Amino-7-(1H-pyrazol-3-yl)-1H-imidazo[4,5-c]quinolin-2-yl)methyl)pyrrolidin-1-yl)propane-1-one] showed an EC50 of 1800 nM.

As for `CC(C)n1c([C@H]2CCCN(C(=O)c3ccccc3)C2)nc2c(N)nc3cc(-c4cc[nH]n4)ccc3c21` [Example 56], the EC50 turned out to be 300 nM. Against the preceding molecule, the EC50 is about 6-fold lower.

With `C#CCC(=O)N1CCC[C@@H](c2nc3c(N)nc4cc(-c5cc[nH]n5)ccc4c3[nH]2)C1` [Example 65], the EC50 worked out at 350 nM.

Turning to `Nc1nc2cc(-c3cc[nH]n3)ccc2c2[nH]c(C[C@@H]3CCCN3C(=O)c3ccccc3)nc12` [Example 96], a half-maximal effect (EC50) was put at 11000 nM. Compared with the last molecule, the EC50 is about 31-fold higher.

The molecule `Nc1nc2cc(-c3cc[nH]n3)ccc2c2[nH]c([C@H]3CCCN(C(=O)c4ccccc4)C3)nc12` [Example 31] displayed an EC50 of 1500 nM.

`CC(C)(C)OC(=O)N1CC[C@@H](c2nc3c(N)nc4cc(-c5cc[nH]n5)ccc4c3[nH]2)C1` [Example 10, tert-Butyl (R)-3-(4-amino-7-(1H-pyrazol-3-yl)-1H-imidazo[4,5-c]quinolin-2-yl)pyrrolidine-1-carboxylate] had an EC50 of 750 nM.
